Test results reported in PMC4311985, “Molecular Surveillance of Antiviral Drug Resistance of Influenza A/H3N2 Virus in Singapore, 2009-2013” (PLoS ONE, 2015).

Tests used:
[1] = system: NA with combination of G248R and K249E mutations; conditions: 'low levels' of resistance; cited from earlier work
[2] = molecular target: influenza A/H3N2 NA, wild-type (baseline) at loci 93, 155, 251 (Influenza A virus (H3N2), UniProt V9SU56); assay type: biochemical; conditions: wild-type (baseline) at each locus; 10 samples tested; mean; read-out: mean drug concentration required to inhibit 50% NA activity

| Structure (SMILES) | IC50 increase [1] [fold] | IC50 [2] [nM] |
| --- | --- | --- |
| CCOC(=O)C1=C[C@@H](OC(CC)CC)[C@H](NC(C)=O)[C@@H](N)C1 [Oseltamivir, oseltamivir] | < 10 | – |
| CCC(CC)[C@H](NC(C)=O)[C@@H]1[C@H](O)[C@@H](C(=O)O)C[C@H]1N=C(N)N [Peramivir, peramivir] | – | 0.2 ± 0.1 |
| CC(=O)N[C@H]1[C@H]([C@H](O)[C@H](O)CO)OC(C(=O)O)=C[C@@H]1N=C(N)N [Zanamivir, zanamivir] | < 10 | – |
